Assay results: US12077503B2, “Substituted cyclic amides and their use as herbicides” (FMC CORPORATION, priority 2015, dated 2024)

Key:
Assay type in all cases: in vivo
Kochia (Kochia scoparia) [1] = assay: Test A preemergence; conditions: Bassia scoparia, pre-emergence, 240 h, 0 to 100 scale where 0 is no effect and 100 is complete control, read-out: Kochia plant response rating
In short: (§1)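 Preemergence directed soil spray on seeded pots, or postemergence application to plants 2–10 cm, one- to two-leaf. Solvent mixture non-phytotoxic, with surfactant. Scored ~10 d later, visually, 0–100 vs untreated.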

[2] = tested on: barnyardgrass (Echinochloa crus-galli); assay: Test A preemergence; conditions: Echinochloa crus-galli, pre-emergence, 240 h, 0 to 100 scale where 0 is no effect and 100 is complete control, read-out: Barnyardgrass plant response rating
In short: as §1

[3] = tested on: giant foxtail (Setaria faberii); assay: Test A preemergence; conditions: Setaria faberi, pre-emergence, 240 h, 0 to 100 scale where 0 is no effect and 100 is complete control, read-out: Foxtail, Giant plant response rating
In short: as §1

[4] = tested on: pigweed (Amaranthus retroflexus); assay: Test A preemergence; conditions: Amaranthus retroflexus, pre-emergence, 240 h, 0 to 100 scale where 0 is no effect and 100 is complete control, read-out: Pigweed plant response rating
[5] = tested on: ragweed (common ragweed, Ambrosia elatior); assay: Test A preemergence; conditions: Ambrosia artemisiifolia, pre-emergence, 240 h, 0 to 100 scale where 0 is no effect and 100 is complete control, read-out: Ragweed plant response rating
In short: as §1

[6] = tested on: ryegrass, Italian (Italian ryegrass, Lolium multiflorum); assay: Test A preemergence; conditions: Lolium multiflorum, pre-emergence, 240 h, 0 to 100 scale where 0 is no effect and 100 is complete control, read-out: Ryegrass, Italian plant response rating
In short: as §1

[7] = tested on: Galium (catchweed bedstraw, Galium aparine); assay: Test A postemergence; conditions: Galium, post-emergence, 240 h, read-out: Galium plant response rating (0 to 100 scale)
In short: as §1

Kochia (Kochia scoparia) [8] = assay: Test A postemergence; conditions: Bassia scoparia, post-emergence, 240 h, read-out: Kochia plant response rating (0 to 100 scale)
In short: as §1

[9] = tested on: barnyardgrass (Echinochloa crus-galli); assay: Test A postemergence; conditions: Echinochloa crus-galli, post-emergence, 240 h, read-out: Barnyardgrass plant response rating (0 to 100 scale)
In short: as §1

[10] = tested on: blackgrass (Alopecurus myosuroides); assay: Test A postemergence; conditions: Alopecurus myosuroides, post-emergence, 240 h, read-out: Blackgrass plant response rating (0 to 100 scale)
In short: as §1

corn (Zea mays) = assay: Test A postemergence; conditions: Zea mays, post-emergence, 240 h, read-out: Corn plant response rating (0 to 100 scale)
In short: as §1

[11] = tested on: giant foxtail (Setaria faberii); assay: Test A postemergence; conditions: Setaria faberi, post-emergence, 240 h, read-out: Foxtail, Giant plant response rating (0 to 100 scale)
In short: as §1

[12] = tested on: pigweed (Amaranthus retroflexus); assay: Test A postemergence; conditions: Amaranthus retroflexus, post-emergence, 240 h, read-out: Pigweed plant response rating (0 to 100 scale)
In short: as §1

[13] = tested on: ragweed (common ragweed, Ambrosia elatior); assay: Test A postemergence; conditions: Ambrosia artemisiifolia, post-emergence, 240 h, read-out: Ragweed plant response rating (0 to 100 scale)
In short: as §1

[14] = tested on: ryegrass, Italian (Italian ryegrass, Lolium multiflorum); assay: Test A postemergence; conditions: Lolium multiflorum, post-emergence, 240 h, read-out: Ryegrass, Italian plant response rating (0 to 100 scale)
In short: as §1

[15] = tested on: wheat (Triticum aestivum); assay: Test A postemergence; conditions: Triticum aestivum, post-emergence, 240 h, Postemergence, 31 g ai/ha; 0 is no effect, 100 is complete control; read-out: Wheat plant response rating (0 to 100 scale)
In short: as §1

[16] = tested on: barnyardgrass (Echinochloa crus-galli); assay: Test B flooded paddy test; conditions: Echinochloa crus-galli, 250 g ai/ha, Flood; 0 to 100 scale where 0 is no effect and 100 is complete control; read-out: Barnyardgrass plant response rating
In short: (§2)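 Greenhouse paddy pots with 2-leaf stage plants received compound by direct addition to floodwater 3 cm deep, kept at that level. Scored visually at 13–15 d versus controls (0 no effect; 100 complete control).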

[17] = tested on: ducksalad (Heteranthera limosa); assay: Test B flooded paddy test; conditions: Heteranthera limosa, 250 g ai/ha, Flood; 0 to 100 scale where 0 is no effect and 100 is complete control; read-out: Ducksalad plant response rating
In short: as §2

rice (Oryra sativa) = assay: Test B flooded paddy test; conditions: Oryza sativa, 250 g ai/ha, Flood; 0 to 100 scale where 0 is no effect and 100 is complete control; read-out: Rice plant response rating
In short: as §2

[18] = tested on: sedge, umbrella (small-flower umbrella sedge, Cyperus difformis); assay: Test B flooded paddy test; conditions: Cyperus difformis, 250 g ai/ha, Flood; 0 to 100 scale where 0 is no effect and 100 is complete control; read-out: Sedge, Umbrella plant response rating
In short: as §2

[19] = 125 g ai/ha, preemergence, visual injury rating, approximately 10 d
[20] = 125 g ai/ha, postemergence, visual injury vs untreated controls after approx. 10 d, 0 = no effect, 100 = complete control
[21] = Postemergence, 31 g ai/ha, 0 is no effect, 100 is complete control

Cn1ccc2ccc([C@H]3CNC(=O)[C@@H]3C(=O)Nc3ccccc3F)cc21 [Compound 1264]
0%: pest or weed control at 31 g/ha (Kochia (Kochia scoparia) [1]; 31 g ai/ha, Preemergence) | pest or weed control at 125 g/ha (Kochia (Kochia scoparia) [1]; [19]) | pest or weed control at 31 g/ha ([2]; 31 g ai/ha, Preemergence) | pest or weed control at 125 g/ha [2, 19] | pest or weed control at 31 g/ha ([3]; 31 g ai/ha, Preemergence) | pest or weed control at 125 g/ha [3, 19] | pest or weed control at 31 g/ha ([4]; 31 g ai/ha, Preemergence) | pest or weed control at 125 g/ha [4, 19] | pest or weed control at 31 g/ha ([5]; 31 g ai/ha, Preemergence) | pest or weed control at 125 g/ha [5, 19] | pest or weed control at 31 g/ha ([6]; 31 g ai/ha, Preemergence) | pest or weed control at 125 g/ha [6, 19] | pest or weed control at 125 g/ha [7, 20] | pest or weed control at 31 g/ha [7, 21] | pest or weed control at 125 g/ha (Kochia (Kochia scoparia) [8]; [20]) | pest or weed control at 31 g/ha (Kochia (Kochia scoparia) [8]; [21]) | pest or weed control at 125 g/ha [9, 20] | pest or weed control at 31 g/ha [9, 21] | pest or weed control at 125 g/ha [10, 20] | pest or weed control at 31 g/ha [10, 21] | plant injury at 125 g/ha (corn (Zea mays); [20]) | plant injury at 31 g/ha (corn (Zea mays); [21]) | pest or weed control at 125 g/ha [11, 20] | pest or weed control at 31 g/ha [11, 21] | pest or weed control at 125 g/ha [12, 20] | pest or weed control at 31 g/ha [12, 21] | pest or weed control at 125 g/ha [13, 20] | pest or weed control at 31 g/ha [13, 21] | pest or weed control at 125 g/ha [14, 20] | pest or weed control at 31 g/ha [14, 21] | plant injury at 31 g/ha [15] | pest or weed control at 250 g/ha [16] | pest or weed control at 250 g/ha [17] | pest or weed control at 250 g/ha (rice (Oryra sativa)) | pest or weed control at 250 g/ha [18]
